What was measured:
Format in all cases: cell-based
[1] = test system: Normal Human Dermal Fibroblast (NHDF); test: transcription factor mRNA levels in treated NHDF by RT-qPCR; conditions: Gant 61
Description: FIG. 6: Graphic representation of the TCF4 (a), EGR2 (b), SOX9 (c), STAT4 (d), FOXS1 (e), PPARG (f), MAF (g), MEOX2 (h), and SIX2 (i) mRNA levels after NHDF (donor A) treatment for 48 h (light grey) or 72 h (dark grey) either with mock siRNA or siRNA directed against different TF mRNA (SOX9, EGR2, TCF4, or FOXS1) and concomitantly treated with TGF-β. For all graphs, the mock siRNA treated with TGF-β (T+E) condition was set to 100% for each time of treatment (48 h and 72 h).
FIG. 10: Graphic representation of the αSMA, GLI1, SOX9 and MAF mRNA levels assessed by RT-qPCR of NHDFs treated by Gant 61.
(§1) After four days of experiment, treated fibroblasts were lysed with TRIzol Reagent (Invitrogen) and stored at −80° C. Then RNA was purified using chloroform and precipitated by isopropanol. Total RNA was quantified on the NanoDrop 2000c Spectrophotometer (Thermo Scientific). Reverse transcription of 500 ng total RNA to cDNA was done with oligot dT (Invitrogen) using SuperScript III RT (Invitrogen) and RNAse OUT (Invitrogen). The cDNA was store at −20° C.
(§2) Quantitative real-time PCR (RT-qPCR) was done using 5 μL of 1:20 diluted cDNA on the LightCycler480 system (Roche) using Maxima SYBR Green qPCR Master Mix (Fermentas). Forward and reverse primers for αSMA were designed by Eurofins (MWG, αSMA forward: […] (SEQ ID NO:9), αSMA reverse: […] (SEQ ID NO:10)) and a 100 μM stock was stored at −20° C. Forward and reverse primer pairs were used for each RT-qPCR reaction. The cycling conditions were as follows: an initial 95° C. for 10 minutes, followed by 45 cycles of 95° C. for 15 sec, 58° C. for 30 sec, 72° C. for 20 sec. LightCycler 480 SW 1.5 was used to evaluate the TM curves, to determine the Cp and to approximate the relative concentration for each amplification reaction.

[2] = test system: Normal Human Dermal Fibroblast (NHDF); test: fibroblast to myofibroblast differentiation of NHDF (markers αSMA, PI16, ACTC1 by RT-qPCR, αSMA positive cells)
Description: (§3) NHDF, isolated from human explants, were purchased from Promocell. NHDF were cultivated in DMEM-F12 (Invitrogen), supplemented with 10% FCS (Invitrogen, 5 μg/mL of insulin and 1 ng/mL of b-FGF (PromoKine)).
(§4) For experiments, cells were deprived of insulin and b-FGF during 48 hours. Then, the cells were cultivated on collagen coated culture plates in DMEM-F12, supplemented with 10% FCS, 10 ng/mL of TGF-β1 (Promocell) for 4 days. Four points were tested in order to appreciate the effect of exudate on fibroblast differentiation: untreated cells (T−E−), fibroblasts treated with TGF-β1 (T+E−), cells treated with exudate (T−E+) and finally fibroblasts treated with TGF-β1 and exudate at the same time (T+E+).
The efficiency of fibroblast differentiation was estimated by analyzing the expression of the myofibroblast marker alpha smooth muscle actin (αSMA).
as §1, §2
Cells grown in collagen coated culture dishes, and treated as previously described, were fixed with 4% paraformaldehyde (PFA) in PBS for 15 minutes and permeabilized with 2.5% Triton X-100 (Euromedex, 2000-B) in PBS for 3 minutes. After saturation with 5% BSA in PBS, cells were stained for α-SMA (Abcam, ab5694) and for DNA (DAPI). As secondary antibody, CyTM3 conjugated anti rabbit (GE Healthcare, PA43004) was used. […] To estimate the percentage of fibroblast differentiation due to the different treatments, the total number of cells per field was determined by the DAPI, and myofibroblasts, differentiated fibroblasts, were counted using the α-SMA staining. […]

[3] = test system: Normal Human Dermal Fibroblast (NHDF); test: ex vivo model of chronic wounds: NHDF differentiation in presence of chronic wound exudate; conditions: TGFβ, exudate and Am580 versus same condition without Am580
Description: as §3
To collect exudates, two patients with mixed ulcers were recruited. For patient selection, it was decided to exclude any other comorbidity factor potentially involved in wound etiology: diabetes, peripheral arterial diseases, malnutrition. Exudates were collected from negative pressure therapy. All the exudates were centrifuged at 1,500×g for 3 minutes to remove cell debris. The supernatant was filtered and stored at −80° C. until use. Aliquots were used to determine protein concentration according to BCA method (Sigma).
as §4
For the chronic or non-healing wound model, chronic wound exudates were added to cell cultures (500 μg/mL of total proteins of exudate). […]

SMILES	MAF mRNA [1]	SOX9 mRNA [1]	expression of GLI1 (mRNA) [1]	differentiation shown by α-SMA mRNA ([2]; Gant 61 4 μM)	PI16 mRNA [3]	αSMA mRNA [3]	differentiation followed with αSMA mRNA ([2]; Am580 5 nM in presence of TGFβ)	differentiation followed with ACTC1 mRNA ([2]; Am580 in presence of TGFβ)	differentiation followed with PI16 mRNA ([2]; Am580 in presence of TGFβ)
CN(C)c1ccccc1CN1CCCN(Cc2ccccc2N(C)C)C1c1ccncc1 [Gant 61]	decrease	increase	upregulate	upregulation	–	–	–	–	–
CC1(C)CCC(C)(C)c2cc(C(=O)Nc3ccc(C(=O)O)cc3)ccc21 [Am580, 4-[(5,6,7,8-Tetrahydro-5,5,8,8-tetramethyl-2-naphthalenyl)carboxamido]benzoic acid]	–	–	–	–	increase	increase	increase differentiation	increase differentiation	increase differentiation

— patent US10071097B2, “Molecular targets for the treatment of wounds, in particular chronic wounds” (URGO RECHERCHE INNOVATION ET DEVELOPPEMENT, priority 2013, dated 2018)
